Test results from patent US9247746B2, “Fungicidal substituted 1-{2-cyclyloxy-2-[2-halo-4-(4-halogen-phenoxy)-phenyl]-ethyl}-1H-[1,2,4]triazole compounds” (BASF SE, priority 2011, dated 2016).

Experiments:
[1] = tested on: Septoria tritici; test: Microtest: activity against leaf blotch on wheat (Septtr); assay type: cell-based
Description: The active compounds were formulated separately as a stock solution having a concentration of 10000 ppm in dimethyl sulfoxide. M2. Activity Against Leaf Blotch on Wheat Caused by Septoria tritici(Septtr) The stock solutions were mixed according to the ratio, pipetted onto a micro titer plate (MTP) and diluted with water to the stated concentrations. A spore suspension of Septoria tritici in an aqueous biomalt or yeast-bactopeptone-glycerine solution was then added. The plates were placed in a water vapor-saturated chamber at a temperature of 18° C. Using an absorption photometer, the MTPs were measured at 405 nm 7 days after the inoculation.

[2] = tested on: Septoria tritici; test: Preventative control of leaf blotch on wheat (Septtr P7), green house; assay type: in vivo; details: inoculated 7 days after spraying, untreated control 90
Description: The spray solutions were prepared in several steps: The stock solution were prepared: a mixture of acetone and/or dimethylsulfoxide and the wetting agent/emulsifier Wettol, which is based on ethoxylated alkylphenoles, in a relation (volume) solvent-emulsifier of 99 to 1 was added to 25 mg of the compound to give a total of 5 ml. Water was then added to total volume of 100 ml. This stock solution was diluted with the described solvent-emulsifier-water mixture to the given concentration. G1. Preventative Control of Brown Rust on Wheat Caused by Puccinia recondita (Puccrt P1) G3. Preventative Control of Leaf Blotch on Wheat Caused by Septoria tritici (Septtr P7) Leaves of pot-grown wheat seedling were sprayed to run-off with an aqueous suspension of the active compound or their mixture, prepared as described. The plants were allowed to air-dry. Seven days later the plants were inoculated with an aqueous spore suspension of Septoria tritici. Then the trial plants were immediately transferred to a humid chamber at 18-22° C. and a relative humidity close to 100%. After 4 days the plants were transferred to a chamber with 18-22° C. and a relative humidity close to 70%. After 4 weeks the extent of fungal attack on the leaves was visually assessed as % diseased leaf area.

[3] = tested on: Phakopsora pachyrhizi; test: Protective control of soy bean rust on soy beans (Phakpa P2), green house; assay type: in vivo; details: inoculated 2 days after spraying, untreated control 90
Description: The spray solutions were prepared in several steps:
The stock solution were prepared: a mixture of acetone and/or dimethylsulfoxide and the wetting agent/emulsifier Wettol, which is based on ethoxylated alkylphenoles, in a relation (volume) solvent-emulsifier of 99 to 1 was added to 25 mg of the compound to give a total of 5 ml. Water was then added to total volume of 100 ml. This stock solution was diluted with the described solvent-emulsifier-water mixture to the given concentration. G1. Preventative Control of Brown Rust on Wheat Caused by Puccinia recondita (Puccrt P1)
G4. Protective Control of Soy Bean Rust on Soy Beans Caused by Phakopsora pachyrhizi (Phakpa P2)
Leaves of pot-grown soy bean seedlings were sprayed to run-off with an aqueous suspension, containing the concentration of active ingredient or their mixture as described below. The plants were allowed to air-dry. The trial plants were cultivated for 2 days in a greenhouse chamber at 23-27° C. and a relative humidity between 60 and 80%. Then the plants were inoculated with spores of Phakopsora pachyrhizi. To ensure the success the artificial inoculation, the plants were transferred to a humid chamber with a relative humidity of about 95% and 20 to 24° C. for 24 h. […] The extent of fungal attack on the leaves was visually assessed as % diseased leaf area.

SMILES: COC(C)(Cn1cncn1)c1ccc(Oc2ccc(Cl)cc2)cc1Cl (stereo not shown)
- Growth (%) at 0.00012 ppm Septtr [1]: 63%
- Disease (%) at 16 ppm Septtr P7 [2]: 80%

SMILES: CCC(Cn1cncn1)(OC)c1ccc(Oc2ccc(Cl)cc2)cc1Cl (stereo not shown)
- Disease (%) at 63 ppm Phakpa P2 [3]: 60%

SMILES: CC(Cn1cncn1)(OCc1ccccc1)c1ccc(Oc2ccc(Cl)cc2)cc1Cl (stereo not shown) [I-1, 1-[2-benzyloxy-2-[2-chloro-4-(4-chlorophenoxy)phenyl]propyl]-1,2,4-triazole]
- Growth (%) at 0.00012 ppm Septtr [1]: 23%
